Patent US8710001B2, “PEGylated, extended insulins” (Novo Nordisk A/S, priority 2006, dated 2014)

Biological target: human insulin receptor, A-isoform (without exon 11) (Homo sapiens, UniProt P06213)
Assay: Insulin receptor binding, SPA (Scintillation Proximity Assay) microtiterplate antibody capture assay
Conditions: affinity relative to human insulin; purified recombinant human insulin receptor; A14Tyr[125I]-human insulin tracer; 16 hours incubation
Procedure: The affinity of the insulin derivatives of this invention for the human insulin receptor is determined by a SPA assay (Scintillation Proximity Assay) microtiterplate antibody capture assay. SPA-PVT antibody-binding beads, anti-mouse reagent (Amersham Biosciences, Cat No. PRNQ0017) are mixed with 25 ml of binding buffer (100 mM HEPES pH 7.8; 100 mM sodium chloride, 10 mM MgSO4, 0.025% Tween-20). Reagent mix for a single Packard Optiplate (Packard No. 6005190) is composed of 2.4 μl of a 1:5000 diluted purified recombinant human insulin receptor (either with or without exon 11), an amount of a stock solution of A14Tyr[^125I]-human insulin corresponding to 5000 cpm per 100 μl of reagent mix, 12 μl of a 1:1000 dilution of F12 antibody, 3 ml of SPA-beads and binding buffer to a total of 12 ml. A total of 100 μl reagent mix is then added to each well in the Packard Optiplate and a dilution series of the insulin derivative is made in the Optiplate from appropriate samples. The samples are then incubated for 16 hours while gently shaken. The phases are the then separated by centrifugation for 1 min and the plates counted in a Topcounter. The binding data were fitted using the nonlinear regression algorithm in the GraphPad Prism 2.01 (GraphPad Software, San Diego, Calif.).

Chain of human insulin receptor, A-isoform (without exon 11) (P06213 28-746 isoform P06213-2 limits assumed): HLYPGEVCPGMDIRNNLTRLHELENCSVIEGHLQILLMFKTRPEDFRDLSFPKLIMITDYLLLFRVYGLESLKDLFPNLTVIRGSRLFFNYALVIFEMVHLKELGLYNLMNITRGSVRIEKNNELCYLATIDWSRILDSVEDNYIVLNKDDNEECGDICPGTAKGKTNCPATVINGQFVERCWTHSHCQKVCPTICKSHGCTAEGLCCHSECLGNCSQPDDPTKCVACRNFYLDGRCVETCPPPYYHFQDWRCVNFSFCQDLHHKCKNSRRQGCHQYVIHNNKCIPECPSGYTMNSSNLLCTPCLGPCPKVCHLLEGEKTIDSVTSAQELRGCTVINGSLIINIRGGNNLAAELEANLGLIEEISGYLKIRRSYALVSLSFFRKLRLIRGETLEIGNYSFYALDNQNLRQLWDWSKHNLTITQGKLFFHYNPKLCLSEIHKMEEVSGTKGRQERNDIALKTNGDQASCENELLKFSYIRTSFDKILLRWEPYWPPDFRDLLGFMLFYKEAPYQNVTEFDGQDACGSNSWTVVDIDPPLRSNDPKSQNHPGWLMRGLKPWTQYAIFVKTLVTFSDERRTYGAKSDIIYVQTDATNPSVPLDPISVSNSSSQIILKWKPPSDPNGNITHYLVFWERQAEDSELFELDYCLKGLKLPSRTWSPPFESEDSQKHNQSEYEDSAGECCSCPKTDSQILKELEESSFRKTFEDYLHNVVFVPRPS
Chain of human insulin receptor, A-isoform (without exon 11) (P06213 763-1382 partner limits assumed): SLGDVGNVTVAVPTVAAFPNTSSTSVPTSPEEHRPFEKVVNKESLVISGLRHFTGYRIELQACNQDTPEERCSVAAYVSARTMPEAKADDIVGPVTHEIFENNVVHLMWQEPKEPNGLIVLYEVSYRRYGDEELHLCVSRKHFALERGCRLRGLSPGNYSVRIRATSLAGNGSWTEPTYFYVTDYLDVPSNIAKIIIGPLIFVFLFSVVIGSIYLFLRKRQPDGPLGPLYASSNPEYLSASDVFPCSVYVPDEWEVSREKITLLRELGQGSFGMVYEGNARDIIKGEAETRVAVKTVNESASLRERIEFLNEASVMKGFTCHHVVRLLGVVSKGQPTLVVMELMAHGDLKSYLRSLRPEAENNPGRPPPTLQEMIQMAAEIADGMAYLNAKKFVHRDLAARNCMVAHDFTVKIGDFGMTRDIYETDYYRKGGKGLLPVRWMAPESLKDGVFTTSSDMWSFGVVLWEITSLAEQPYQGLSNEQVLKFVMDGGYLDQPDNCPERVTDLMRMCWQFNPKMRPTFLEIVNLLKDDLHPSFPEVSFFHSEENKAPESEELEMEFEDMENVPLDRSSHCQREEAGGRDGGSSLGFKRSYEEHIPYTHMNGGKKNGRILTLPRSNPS

Substance | Insulin receptor binding, A-isoform (without exon 11) Relative to human insulin
A14E, A22K(N^+mPEG2000-Propionyl), B25H, B29R, desB30 Human Insulin [Example 16] | 15%
A14E, A22K(N^ε(mdPEG12)3-dPEG4-yl), B25H, B29R, desB30 Human Insulin [Example 17] | 19%
A14E, A22K(N^ε(mdPEG12)3-dPEG4-yl-dPEG12-yl), B25H, B29R, desB30 Human Insulin [Example 18] | 16%
A22G, A23G, A24G, A25K(N^εmPEG750-Propionyl), B29R, desB30 Human Insulin [Example 7] | 44%
A22G, A23K(N^εmPEG2000-Propionyl), B29R, desB30 Human Insulin [Example 8] | 58%
A22K(N^ε(mdPEG12)3-dPEG4-yl), B29R, desB30 Human Insulin [Example 6] | 120%
A22K(N^ε(mdPEG12)3-dPEG4-yl-dPEG12-yl), B29R, desB30 Human Insulin [Example 19] | 106%
A22K(N^ε-mPEG2000-Propionyl), B29R, desB30 Human Insulin [Example 1] | 90%
A22K(N^εmPEG2000-Propionyl), B29R, desB30 Human Insulin [Example 2] | 90%
B29Q, B31K(N^ε(mPEG2000-Propionyl)) Human Insulin [Example 22] | 14%
